In the NIST ThermoML archive (doi:10.1016/j.fluid.2015.04.017):

Test: xn = mol fraction of the nth substance listed
Conditions: 101 kPa, Liquid; for viscosity: Concentric cylinders viscometry; for mass density: Vibrating tube method

CCOC(=O)C(C)O (stereo not drawn) [DL-ethyl lactate] + Cc1ccccc1
Conditions	mass density [kg/m3]	viscosity [mPa·s]
288.15 K, x1 = 0.1001	887.622	0.6897
288.15 K, x1 = 0.2001	904.719	0.7894
288.15 K, x1 = 0.3	921.906	0.9136
288.15 K, x1 = 0.4	939.168	1.06
288.15 K, x1 = 0.4998	956.144	1.258
288.15 K, x1 = 0.6001	973.156	1.493
288.15 K, x1 = 0.7	990.077	1.795
288.15 K, x1 = 0.7999	1006.73	2.174
288.15 K, x1 = 0.9	1023.31	2.637
288.15 K, x1 = 1	1039.28	3.207
293.15 K, x1 = 0.1001	882.811	0.6502
293.15 K, x1 = 0.2001	899.769	0.7404
293.15 K, x1 = 0.3	916.845	0.8468
293.15 K, x1 = 0.4	934.015	0.9765
293.15 K, x1 = 0.4998	950.923	1.141
293.15 K, x1 = 0.6001	967.906	1.344
293.15 K, x1 = 0.7	984.738	1.597
293.15 K, x1 = 0.7999	1001.36	1.911
293.15 K, x1 = 0.9	1017.91	2.29
293.15 K, x1 = 1	1033.84	2.75
298.15 K, x1 = 0.1001	877.99	0.6148
298.15 K, x1 = 0.2001	894.808	0.6896
298.15 K, x1 = 0.3	911.77	0.7865
298.15 K, x1 = 0.4	928.847	0.9011
298.15 K, x1 = 0.4998	945.727	1.043
298.15 K, x1 = 0.6001	962.633	1.22
298.15 K, x1 = 0.7	979.381	1.434
298.15 K, x1 = 0.7999	995.963	1.695
298.15 K, x1 = 0.9	1012.47	2.01
298.15 K, x1 = 1	1028.39	2.39
303.15 K, x1 = 0.1001	873.16	0.5814
303.15 K, x1 = 0.2001	889.833	0.6488
303.15 K, x1 = 0.3	906.687	0.7345
303.15 K, x1 = 0.4	923.666	0.8343
303.15 K, x1 = 0.4998	940.433	0.9586
303.15 K, x1 = 0.6001	957.336	1.112
303.15 K, x1 = 0.7	974.002	1.295
303.15 K, x1 = 0.7999	990.547	1.517
303.15 K, x1 = 0.9	1007.14	1.782
303.15 K, x1 = 1	1022.92	2.097
308.15 K, x1 = 0.1001	868.317	0.5513
308.15 K, x1 = 0.2001	884.843	0.6122
308.15 K, x1 = 0.3	901.583	0.6876
308.15 K, x1 = 0.4	918.463	0.7756
308.15 K, x1 = 0.4998	935.187	0.8842
308.15 K, x1 = 0.6001	952.011	1.017
308.15 K, x1 = 0.7	968.604	1.176
308.15 K, x1 = 0.7999	985.109	1.367
308.15 K, x1 = 0.9	1001.53	1.592
308.15 K, x1 = 1	1017.42	1.858
313.15 K, x1 = 0.1001	863.457	0.5218
313.15 K, x1 = 0.2001	879.836	0.5761
313.15 K, x1 = 0.3	896.465	0.6439
313.15 K, x1 = 0.4	913.246	0.7225
313.15 K, x1 = 0.4998	929.878	0.8182
313.15 K, x1 = 0.6001	946.664	0.935
313.15 K, x1 = 0.7	963.183	1.073
313.15 K, x1 = 0.7999	979.648	1.239
313.15 K, x1 = 0.9	996.054	1.432
313.15 K, x1 = 1	1011.9	1.658
318.15 K, x1 = 0.1001	858.58	0.4943
318.15 K, x1 = 0.2001	874.813	0.5433
318.15 K, x1 = 0.3	891.323	0.6042
318.15 K, x1 = 0.4	908.008	0.6744
318.15 K, x1 = 0.4998	924.579	0.7599
318.15 K, x1 = 0.6001	941.286	0.8633
318.15 K, x1 = 0.7	957.74	0.985
318.15 K, x1 = 0.7999	974.163	1.13
318.15 K, x1 = 0.9	990.49	1.296
318.15 K, x1 = 1	1006.36	1.491
323.15 K, x1 = 0.1001	853.686	0.4712
323.15 K, x1 = 0.2001	869.771	0.5163
323.15 K, x1 = 0.3	886.165	0.5718
323.15 K, x1 = 0.4	902.749	0.6343
323.15 K, x1 = 0.4998	919.234	0.7115
323.15 K, x1 = 0.6001	935.886	0.8038
323.15 K, x1 = 0.7	952.282	0.912
323.15 K, x1 = 0.7999	968.653	1.038
323.15 K, x1 = 0.9	984.965	1.186
323.15 K, x1 = 1	1000.79	1.349
